In patent publication US20250179103A1, “6-OXODECAHYDROPYRROLO[1,2-A][1,5]DIAZOCINE AND 6-OXODECAHYDRO-4H-PYRROLO[2,1-D][1,5]THIAZOCINE DERIVATIVES AS STAT3 AND STAT6 MODULATORS FOR THE TREATMENT OF CANCER AND INFLAMMATORY CONDITIONS” (Recludix Pharma, Inc., priority 2022, published 2025):

Key:
[1] = target: T1, Recombinant STAT3 protein (STAT3(G127-I722)) (Homo sapiens, UniProt P40763); test: STAT3 Fluorescence Polarization (FP) Assay; assay type: binding; conditions: STAT3(G127-I722) 25 nM, probe 5-FAM-GpYLPQTV-NH2 2 nM, 45-minute incubation
T1 construct: Recombinant STAT3 protein (STAT3(G127-I722))
Outline: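 STAT3(G127-I722), 25 nM, was mixed with 2 nM 5-FAM-GpYLPQTV-NH2 probe in HEPES pH 7.4 buffer with 1% DMSO and serially diluted compound. FP (mP) was read after 45 min at room temperature. IC50 came from nonlinear regression.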

[2] = target: T2, Recombinant STAT6 protein (STAT6(W123-T658)) (Homo sapiens, UniProt P42226); test: STAT6 Fluorescence Polarization (FP) Assay; assay type: binding; conditions: STAT6(W123-T658) 250 nM, probe 5-FAM-ApYKPFQDLI-NH2 2 nM, 45-minute incubation
T2 construct: Recombinant STAT6 protein (STAT6(W123-T658))
T2 sequence (P42226 123-658): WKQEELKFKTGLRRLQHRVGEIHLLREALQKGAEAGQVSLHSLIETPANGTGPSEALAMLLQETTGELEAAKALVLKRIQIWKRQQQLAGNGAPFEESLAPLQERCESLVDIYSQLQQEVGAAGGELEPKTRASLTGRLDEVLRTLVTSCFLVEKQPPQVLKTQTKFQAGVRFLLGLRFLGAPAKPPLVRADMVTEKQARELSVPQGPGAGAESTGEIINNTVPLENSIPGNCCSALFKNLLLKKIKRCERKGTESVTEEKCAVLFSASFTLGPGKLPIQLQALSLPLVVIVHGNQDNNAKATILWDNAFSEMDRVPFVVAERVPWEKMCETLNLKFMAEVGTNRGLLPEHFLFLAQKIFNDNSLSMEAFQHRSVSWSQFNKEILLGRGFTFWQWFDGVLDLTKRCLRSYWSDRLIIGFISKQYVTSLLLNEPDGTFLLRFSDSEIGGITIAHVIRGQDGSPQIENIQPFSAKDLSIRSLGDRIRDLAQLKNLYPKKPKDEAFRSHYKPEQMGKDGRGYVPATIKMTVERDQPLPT
Outline: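 Displacement of a fluorescent phosphotyrosine peptide (5-FAM-ApYKPFQDLI-NH2, 2 nM) from STAT6(W123-T658) (250 nM), 1% DMSO, pH 7.4 HEPES buffer. After 45 min at room temperature, polarization (mP) was plotted versus log compound concentration and fitted by nonlinear regression to give IC50.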

T1 sequence (P40763 127-722): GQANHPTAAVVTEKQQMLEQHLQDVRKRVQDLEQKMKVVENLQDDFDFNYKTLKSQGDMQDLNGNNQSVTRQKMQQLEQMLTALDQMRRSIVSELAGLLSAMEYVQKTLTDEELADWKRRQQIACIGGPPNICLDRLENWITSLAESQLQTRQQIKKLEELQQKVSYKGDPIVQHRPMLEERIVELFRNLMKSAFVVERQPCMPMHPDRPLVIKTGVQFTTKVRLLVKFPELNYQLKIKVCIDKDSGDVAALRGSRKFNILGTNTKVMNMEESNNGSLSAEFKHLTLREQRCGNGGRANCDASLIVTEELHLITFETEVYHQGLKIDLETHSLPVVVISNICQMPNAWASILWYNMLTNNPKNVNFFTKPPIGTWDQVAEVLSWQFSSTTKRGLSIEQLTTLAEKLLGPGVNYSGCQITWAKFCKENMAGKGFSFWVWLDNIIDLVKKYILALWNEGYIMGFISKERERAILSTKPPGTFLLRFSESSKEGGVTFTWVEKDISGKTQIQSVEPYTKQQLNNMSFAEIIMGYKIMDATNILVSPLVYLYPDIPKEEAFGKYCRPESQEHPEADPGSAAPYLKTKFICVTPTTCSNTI

| IC50 [1] | IC50 [2] | SMILES |
| --- | --- | --- |
| 1000 to 10000 nM | 300 to 3000 nM | CC(=O)N1CC[C@H]2CC[C@@H](C(=O)N(C)c3ccc(OC(F)(F)F)cc3)N2C(=O)[C@@H](NC(=O)c2cc3cc(C(F)(F)P(=O)(O)O)ccc3[nH]2)C1 [Compound 135, ((2-(((5S,8S,10aR)-3-acetyl-8-(methyl(4-(trifluoromethoxy)phenyl)carbamoyl)-6-oxodecahydropyrrolo[1,2-a][1,5]diazocin-5-yl)carbamoyl)-1H-indol-5-yl)difluoromethyl)phosphonic acid] |
| 1000 to 10000 nM | ≤ 300 nM | CC(=O)N1CC[C@H]2CC[C@@H](C(=O)N(C)c3ccc(C(C)(C)C)cc3)N2C(=O)[C@@H](NC(=O)c2cc3cc(C(F)(F)P(=O)(O)O)ccc3[nH]2)C1 [Compound 136, ((2-(((5S,8S,10aR)-3-acetyl-8-((4-(tert-butyl)phenyl)(methyl)carbamoyl)-6-oxodecahydropyrrolo[1,2-a][1,5]diazocin-5-yl)carbamoyl)-1H-indol-5-yl)difluoromethyl)phosphonic acid] |
| 1000 to 10000 nM | 300 to 3000 nM | COCCOc1ccc(N(C)C(=O)[C@@H]2CC[C@@H]3CCN(C(C)=O)C[C@H](NC(=O)c4cc5cc(C(F)(F)P(=O)(O)O)ccc5[nH]4)C(=O)N32)cc1 [Compound 137, ((2-(((5S,8S,10aR)-3-acetyl-8-((4-(2-methoxyethoxy)phenyl)(methyl)carbamoyl)-6-oxodecahydropyrrolo[1,2-a][1,5]diazocin-5-yl)carbamoyl)-1H-indol-5-yl)difluoromethyl)phosphonic acid] |
| 100 to 1000 nM | 300 to 3000 nM | CC(=O)N1CC[C@H]2CC[C@@H](C(=O)Nc3ccn(-c4ccccc4)c(=O)c3)N2C(=O)[C@@H](NC(=O)c2cc3cc(C(F)(F)P(=O)(O)O)ccc3[nH]2)C1 [Compound 140, ((2-(((5S,8S,10aR)-3-acetyl-6-oxo-8-((2-oxo-1-phenyl-1,2-dihydropyridin-4-yl)carbamoyl)decahydropyrrolo[1,2-a][1,5]diazocin-5-yl)carbamoyl)-1H-indol-5-yl)difluoromethyl)phosphonic acid] |
| 1000 to 10000 nM | 300 to 3000 nM | CC(=O)N1CC[C@H]2CC[C@@H](C(=O)N(C)c3ccc(C(C)(C)c4ccccc4)cc3)N2C(=O)[C@@H](NC(=O)c2cc3cc(C(F)(F)P(=O)(O)O)ccc3s2)C1 [Compound 155, ((2-(((5S,8S,10aR)-3-acetyl-8-(methyl(4-(2-phenylpropan-2-yl)phenyl)carbamoyl)-6-oxodecahydropyrrolo[1,2-a][1,5]diazocin-5-yl)carbamoyl)benzo[b]thiophen-5-yl)difluoromethyl)phosphonic acid] |
| 1000 to 10000 nM | 300 to 3000 nM | CC(=O)N1CC[C@H]2CC[C@@H](C(=O)N(C)c3ccc(C(C)(C)CO)cc3)N2C(=O)[C@@H](NC(=O)c2cc3cc(C(F)(F)P(=O)(O)O)ccc3s2)C1 [Compound 156, ((2-(((5S,8S,10aR)-3-acetyl-8-((4-(1-hydroxy-2-methylpropan-2-yl)phenyl)(methyl)carbamoyl)-6-oxodecahydropyrrolo[1,2-a][1,5]diazocin-5-yl)carbamoyl)benzo[b]thiophen-5-yl)difluoromethyl)phosphonic acid] |
| 1000 to 10000 nM | 300 to 3000 nM | CC(=O)N1CC[C@H]2CC[C@@H](C(=O)Nc3ccc4cn(C)nc4c3)N2C(=O)[C@@H](NC(=O)c2cc3cc(C(F)(F)P(=O)(O)O)ccc3s2)C1 [Compound 157, ((2-(((5S,8S,10aR)-3-acetyl-8-((2-methyl-2H-indazol-6-yl)carbamoyl)-6-oxodecahydropyrrolo[1,2-a][1,5]diazocin-5-yl)carbamoyl)benzo[b]thiophen-5-yl)difluoromethyl)phosphonic acid] |
| 100 to 1000 nM | 300 to 3000 nM | CC(=O)N1CC[C@H]2CC[C@@H](C(=O)Nc3ccc4cnccc4c3)N2C(=O)[C@@H](NC(=O)c2cc3cc(C(F)(F)P(=O)(O)O)ccc3s2)C1 [Compound 158, ((2-(((5S,8S,10aR)-3-acetyl-8-(isoquinolin-6-ylcarbamoyl)-6-oxodecahydropyrrolo[1,2-a][1,5]diazocin-5-yl)carbamoyl)benzo[b]thiophen-5-yl)difluoromethyl)phosphonic acid] |
